{"source": "patent US7122570B2", "about": "“Tetrahydrocarbazol derivatives as ligands for G-protein-coupled receptors (GPCR)” (Zentaris AG, priority 2001, dated 2006)", "key": {"[1]": {"target": "T1, GnRH receptor (Homo sapiens, UniProt P30968)", "T1 sequence (P30968 1-328)": "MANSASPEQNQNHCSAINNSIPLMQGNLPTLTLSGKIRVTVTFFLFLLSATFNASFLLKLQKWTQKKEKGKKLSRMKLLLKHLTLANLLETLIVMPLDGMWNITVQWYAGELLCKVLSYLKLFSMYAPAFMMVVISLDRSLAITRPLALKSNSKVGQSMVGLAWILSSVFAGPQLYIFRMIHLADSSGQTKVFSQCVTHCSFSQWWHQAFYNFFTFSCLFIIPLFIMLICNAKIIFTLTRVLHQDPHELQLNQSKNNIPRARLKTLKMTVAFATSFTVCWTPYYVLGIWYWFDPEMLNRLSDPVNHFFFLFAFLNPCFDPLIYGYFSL", "assay": "Receptor binding assay with 125I-triptorelin on transfected LTK cells", "details": "competition with 125I-triptorelin, whole LTK cells, 60 minutes at 37° C.", "procedure": "^125I-Triptorelin [^125I-(D)-Trp6-GnRH] is ordered from the Biotrend Company (Cologne, Germany). The specific activity in each case is 2.13 Ci/mmol. All other chemicals are ordered from commercial sources at the highest available purity.\nTransfixed LTK′ cells (ATCC No. CCL-11.3) are cultivated in DMEM medium (Invitrogen Life Technologies, Germany) with penicillin (100 I.U./ml), streptomycin (0.1 mg/ml) and glutamine (0.01 mol/l) and 10% fetal calf serum (FCS; Invitrogen Life Technologies, Germany) on plastic tissue culture plates (Nunc, Germany, 245×245×20 nun).\n80% confluent cell culture plates are washed twice with 50 ml of phosphate-buffered salt solution (PBS) and dissolved below with 0.01 M EDTA solution. The cells are pelletized by centrifuging at 200×g for 5 minutes in a laboratory centrifuge (Kendro, Germany). The cell pellet is resuspended in 3 ml of binding medium (DMEM; 10 mmol of Hepes; 0.5% BSA; 0.1% NaN3; 1 g/l of bacitracin (freshly added, stock 100×); 0.1 g/l of SBTI (freshly added, stock 1000×), and the cell count is determined by means of trypan blue staining in a Neubauer counting chamber. The cell suspension is set with binding medium to a concentration of 5×10^5 Z/0.05 ml.\nBinding tests for competition curves are performed as duplicates. The test substances are used as 10 mmol DMSO solutions. They are diluted with binding medium to 4× the final concentration used. 25 μl of the substance dilution is mixed with 25 μl of tracer solution (^125I-triptorelin). The concentration of tracer is set to about 50,000 cpm (measured in Cobra II, γ-counter, PE Liefe Science, Germany) in the final reaction volume of 100 μl.\n200 μl of a silicone/paraffin oil mixture (84%:16%) is introduced into 650 μl pointed-bottom tubes (Roth, Germany). 50 μl of the cell suspension is pipetted thereto and subsequently 50 μl of the test substance/tracer mixture. The tubes are sealed and incubated for 60 minutes at 37° C. in an incubator that rotates via the top. After incubation, the samples are centrifuged in a centrifuge (Kendro, Germany) at 900 rpm and subsequently flash-frozen in liquid N2. The tip with the cell pellet is cut off and inserted into the prepared counting tube (Roth, Germany). The remainder of the pointed-bottom tube with the remaining supernatant is also inserted into a counting tube. The measurement is made in a γ-counter for 1 minute/sample.\nThe evaluation of the samples is carried out after calculating the specific bond in comparison to untreated cells, after the unspecific bond (excess unlabeled ligand, 1 mmol) is removed by means of GraphPad Prism (GraphPad Software Inc., USA)."}, "[2]": {"target": "T1, GnRH receptor", "assay": "Functional reporter gene assay (luciferase) in LTK cells carrying GnRH receptors, triptorelin stimulation", "assay_type": "cell-based", "design": "expressed in transfected cells; host or cells: LTK cells (ATCC No. CCL-1.3), stably transfected, with CRE / CMV minimal promoter luciferase reporter", "details": "inhibition of triptorelin/Rolipram-stimulated luciferase reporter", "procedure": "Functional Reporter Gene Assay\nFor performing functional tests, stable, transfixed LTK cells carrying GnRH receptors (ATCC No. CCL-1.3) with a heterologous expression of cAMP responsible elements as well as a CMV minimal promoter-driven luciferase reporter gene are used.\nThe cells are cultivated in DMEM medium (Invitrogen Life Technologies, Germany) with penicillin (100 I.U./ml), streptomycin (0.1 mg/ml) and glutamine (0.01 mol/l) and 10% fetal calf serum (FCS; Invitrogen Life Technologies, Germany) on plastic tissue culture plates (Nunc, Germany, 245×245×20 mm).\n80% confluent cell culture plates are washed twice with 50 ml of phosphate-buffered salt solution (PBS) and subsequently dissolved with trypsin EDTA solution (Invitrogen Life Technologies, Germany). The cells are pelletized by centrifuging at 200×g for 5 minutes in a laboratory centrifuge (Kendro, Germany). The cell pellet is resuspended in 3 ml of assay medium (Invitrogen Life Technologies, Germany) with penicillin (100 I.U./ml), streptomycin (0.1 mg/ml) and glutamine (0.01 mol/l) and 10% fetal calf serum (FCS; Invitrogen Life Technologies, Germany), and the cell count is determined by means of trypan blue staining in a Neubauer counting chamber. The cell suspension is set with assay medium to a concentration of 1×10^4 Z/100 μl. The cells are suspended on white 96-well microtiter plates (Costar, Germany) and incubated for 18 hours in an incubator.\nTo perform tests, test substances are diluted as 10 mmol DMSO solutions in assay medium to 6× the final concentration used. 25 μl of the test substance is added to 100 μl cells and incubated for 60 minutes at 37° C., 5% CO2. Then, the addition of triptorelin (D-Trp6-GnRH)/Rolipram solution (6 mmol/6 mmol) and a renewed incubation are carried out for 6 hours at 37° C., 5% CO2.\nAfter incubation, the addition of 50 μl of lysis/detection buffer (LucLite, PE Life Science) and the measurement in a Lumistar luminometer (BMG Labtechnologies GmBH, Germany) are carried out.\nThe evaluation of the samples is carried out after calculating the inhibition in comparison to untreated stimulated cells, after removal of non-stimulated controls, by means of GraphPad Prism (GraphPad Software, Inc., USA) or alternately by means of OMMM (Accelrys, Germany) Software."}}, "data": [{"smiles": "CC[C@H](C)[C@H](NC(=O)OCc1ccccc1)C(=O)N[C@]1(C(=O)N[C@H](C(N)=O)C(C)C)CCc2[nH]c3c(F)cc(F)cc3c2C1", "note": "[Compound 293, Phenylmethyl [(1S,2S)-1-[[[(3R)-3-[[[(1S)-1-(aminocarbonyl)-2-methylpropyl]amino]carbonyl]-6,8-difluoro-2,3,4,9-tetrahydro-1H-carbazol-3-yl]amino]car-bonyl]-2-methylbutyl]carbamate]", "values": [{"measurement": "EC50", "setting": "[1]", "result": 332, "unit": "nM"}, {"measurement": "EC50", "setting": "[2]", "result": 762, "unit": "nM"}]}, {"smiles": "CC[C@H](C)[C@H](NC(=O)[C@@]1(NC(=O)[C@@H](NC(=O)OCc2ccccc2)[C@@H](C)CC)CCc2[nH]c3c(OC)cccc3c2C1)C(N)=O", "note": "[Compound 294, Phenylmethyl [(1S,2S)-1-[[[(3R)-3-[[[(1S,2S)-1-(aminocarbonyl)-2-methylbutyl]amino]carbonyl]-8-methoxy-2,3,4,9-tetrahydro-1H-carbazol-3-yl]amino]car-bonyl]-2-methylbutyl]carbamate]", "values": [{"measurement": "EC50", "setting": "[1]", "result": 36, "unit": "nM"}, {"measurement": "EC50", "setting": "[2]", "result": 89, "unit": "nM"}]}, {"smiles": "CC[C@H](C)[C@H](NC(=O)[C@@]1(NC(=O)[C@@H](NC(=O)OCc2ccccc2)[C@@H](C)CC)CCc2[nH]c3c(Cl)cc(Cl)cc3c2C1)C(N)=O", "note": "[Compound 295, Phenylmethyl [(1S,2S)-1-[[[(3R)-3-[[[(1S,2S)-1-(aminocarbonyl)-2-methylbutyl]amino]carbonyl]-6,8-dichloro-2,3,4,9-tetrahydro-1H-carbazol-3-yl]amino]car-bonyl]-2-methylbutyl]carbamate]", "values": [{"measurement": "EC50", "setting": "[1]", "result": 18, "unit": "nM"}, {"measurement": "EC50", "setting": "[2]", "result": 7, "unit": "nM"}]}, {"smiles": "CC[C@H](C)[C@H](NC(=O)OCc1ccccc1)C(=O)N[C@]1(C(=O)N[C@@H](CC(C)C)C(N)=O)CCc2[nH]c3c(Cl)cc(Cl)cc3c2C1", "note": "[Compound 296, Phenylmethyl [(1S,2S)-1-[[[(3R)-3-[[[(1S)-1-(aminocarbonyl)-3-methylbutyl]amino]carbonyl]-6,8-dichloro-2,3,4,9-tetrahydro-1H-carbazol-3-yl]amino]car-bonyl]-2-methylbutyl]carbamate]", "values": [{"measurement": "EC50", "setting": "[1]", "result": 22, "unit": "nM"}, {"measurement": "EC50", "setting": "[2]", "result": 14, "unit": "nM"}]}, {"smiles": "CC[C@H](C)[C@H](NC(=O)OCc1ccccc1)C(=O)N[C@]1(C(=O)N[C@@H](CC2CCCCC2)C(N)=O)CCc2[nH]c3c(Cl)cc(Cl)cc3c2C1", "note": "[Compound 297, Phenylmethyl [(1S,2S)-1-[[[(3R)-3-[[[(1S)-1-(aminocarbonyl)-2-cyclohexylethyl]amino]carbonyl]-6,8-dichloro-2,3,4,9-tetrahydro-1H-carbazol-3-yl]amino]car-bonyl]-2-methylbutyl]carbamate]", "values": [{"measurement": "EC50", "setting": "[1]", "result": 482, "unit": "nM"}, {"measurement": "EC50", "setting": "[2]", "result": 284, "unit": "nM"}]}, {"smiles": "CC[C@H](C)[C@H](NC(=O)OCc1ccccc1)C(=O)N[C@]1(C(=O)N[C@@H](CCc2ccccc2)C(N)=O)CCc2[nH]c3c(Cl)cc(Cl)cc3c2C1", "note": "[Compound 299, Phenylmethyl [(1S,2S)-1-[[[(3R)-3-[[[(1S)-1-(aminocarbonyl)-3-phenylpropyl]amino]carbonyl]-6,8-dichloro-2,3,4,9-tetrahydro-1H-carbazol-3-yl]amino]car-bonyl]-2-methylbutyl]carbamate]", "values": [{"measurement": "EC50", "setting": "[1]", "result": 1310, "unit": "nM"}, {"measurement": "EC50", "setting": "[2]", "result": 1500, "unit": "nM"}]}, {"smiles": "CCC(C)[C@H](NC(=O)[C@@]1(NC(=O)[C@H](CC2CCCCC2)NC(=O)OCc2ccccc2)CCc2[nH]c3c(Cl)cc(Cl)cc3c2C1)C(N)=O", "note": "(stereo partly drawn) [Compound 300, Phenylmethyl [(1S,2S)-1-[[[(3R)-3-[[[(1S)-1(aminocarbonyl)-2-methylbutyl]amino]carbonyl]-6,8-dichloro-2,3,4,9-tetrahydro-1H-carbazol-3-yl]amino]car-bonyl]-2-cyclohexylmethyl]-carbamate]", "values": [{"measurement": "EC50", "setting": "[1]", "result": 23, "unit": "nM"}, {"measurement": "EC50", "setting": "[2]", "result": 17, "unit": "nM"}]}, {"smiles": "CC[C@H](C)[C@H](NC(=O)[C@@]1(NC(=O)[C@@H](NC(=O)OCc2ccccc2)[C@@H](C)CC)CCc2[nH]c3c(Cl)cc(Cl)cc3c2C1)C(=O)O", "note": "[Compound 301, Phenylmethyl [(1S,2S)-1-[[[(3R)-3-[[[(1S,2S)-1-(carboxy)-2-methylbutyl]amino]carbonyl]-6,8-dichloro-2,3,4,9-tetrahydro-1H-carbazol-3-yl]amino]car-bonyl]-2-methylbutyl]carbamate]", "values": [{"measurement": "EC50", "setting": "[1]", "result": 538, "unit": "nM"}, {"measurement": "EC50", "setting": "[2]", "result": 176, "unit": "nM"}]}, {"smiles": "CC[C@H](C)[C@H](NC(=O)[C@@]1(NC(=O)[C@H](Cc2ccc(O)cc2)NC(=O)OCc2ccccc2)CCc2[nH]c3c(Cl)cc(Cl)cc3c2C1)C(N)=O", "note": "[Compound 302, Phenylmethyl [(1S)-1-[[[(3R)-3-[[[(1S,2S)-1-(aminocarbonyl)-2-methylbutyl]amino]carbonyl]-6,8-dichloro-2,3,4,9-tetrahydro-1H-carbazol-3-yl]amino]car-bonyl]-2-(4-hydroxyphenyl)-ethyl]carbamate]", "values": [{"measurement": "EC50", "setting": "[1]", "result": 475, "unit": "nM"}, {"measurement": "EC50", "setting": "[2]", "result": 324, "unit": "nM"}]}, {"smiles": "CC[C@H](C)[C@H](NC(=O)[C@@]1(NC(=O)[C@H](CCc2ccccc2)NC(=O)OCc2ccccc2)CCc2[nH]c3c(Cl)cc(Cl)cc3c2C1)C(N)=O", "note": "[Compound 304, Phenylmethyl [(1S)-1-[[[(3R)-3-[[[(1S,2S)-1-(aminocarbonyl)-2-methylbutyl]amino]carbonyl]-6,8-dichloro-2,3,4,9-tetrahydro-1H-carbazol-3-yl]amino]car-bonyl]-3-phenylpropyl]carbamate]", "values": [{"measurement": "EC50", "setting": "[1]", "result": 38, "unit": "nM"}, {"measurement": "EC50", "setting": "[2]", "result": 18, "unit": "nM"}]}]}
